# From PubChem BioAssay (NCI)
# “And” between values parts separate entries of the source, which are not always exact repeats. Equal entries are not always repeated.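 Grown in 96-well plates, cells were treated for 48 hours with each compound at five concentrations. Insufficient inhibition: endpoint recorded as highest concentration tested. The concentration for 50% growth inhibition is given as GI50. TGI is the concentration that stops growth completely.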
# Columns and labels:
# Assay in all cases: NCI tumour cell line growth inhibition, 48 h
# [1] = system: DMS 273 small cell lung
# [2] = system: KM20L2 colon
# [3] = system: XF 498 CNS
# [4] = system: SNB-78 CNS
# [5] = system: DMS 114 small cell lung
# [6] = system: DLD-1 colon
# [7] = system: LXFL 529 NSCLC
# [8] = system: RXF-631 renal
# [9] = system: MDA-N
# [10] = system: SN12K1 renal
# [11] = system: P388/ADR leukemia
# [12] = system: P388 leukemia
SMILES,TGI [1],TGI [2],TGI [3],TGI [4],TGI [5] [µM],TGI [6],TGI [7],TGI [8] [µM],TGI [9],further results
CCOc1ccc(N=Nc2c(-c3ccccc3)nn(C(=O)CC(=O)Nc3ccccc3Cl)c2-c2ccccc2)cc1,> 100 µM,> 100 µM,> 100 µM,> 100 µM,> 100,> 100 µM,> 100 µM,,,
Nc1cccc(C(=O)/C=C/c2ccccc2O)c1,> 100 µM,> 100 µM,> 100 µM,> 100 µM,> 100,> 100 µM,> 100 µM,,,
CCOC(=O)C(=O)Nc1nc2ccc(OC)cc2s1,> 100 µM,> 100 µM,,> 100 µM,,> 100 µM,> 100 µM,,,
Cc1cccc(NC(=O)CSc2nnc(-c3ccc(N=Cc4ccc(Cl)cc4)cc3)o2)c1,> 100 µM,> 100 µM,> 100 µM,> 100 µM,> 100,,> 100 µM,,,
O=C(N[C@H]1CC2(C=C(I)C(=O)C(I)=C2)OC1=O)OCc1ccccc1,,34.7 µM,26.8 µM,33.5 µM,39.3,32.8 µM,30.2 µM,30.8,,
Cc1ccc(-n2cc(/C(N)=N/O)c3ccccc3c2=O)cc1,> 100 µM,> 100 µM,> 100 µM,,> 100,,> 100 µM,,,
C=C(/C=C/C=C(\CO)CCC=C(C)C)[C@H]1CCC2([C@H](CCCO)/C(=C(/C)C=O)CC[C@]2(C)O)[C@H]1O (stereo not given in full),> 100 µM,> 100 µM,> 100 µM,> 100 µM,> 100,> 100 µM,> 100 µM,,,
CN(C)CN(C)c1nc(N(C)C)nc(N(C)C)n1,> 100 µM,> 100 µM,> 100 µM,> 100 µM,> 100,> 100 µM,> 100 µM,,,
C=C1CCC2C(C)(CO)C(O)CCC2(C)C1C/C=C1\C(=O)OCC1O (stereo not given),,,,,,,,,55.1 µM,
Cc1cc2nc3c(C(OC4OC(CO)C(O)C(O)C4O)C(O)CO)nn(-c4ccc(F)cc4)c3nc2cc1C (stereo not given),,> 100 µM,> 100 µM,> 100 µM,> 100,> 100 µM,> 100 µM,> 100,,
c1ccc2c(c1)n1nnnc1c1nnnn21,> 100 µM,> 100 µM,> 100 µM,> 100 µM,> 100,> 100 µM,> 100 µM,> 100,,
COc1cc2c(c(OC)c1OC)-c1ccc(SC)c(=O)cc1C(CC(=O)Oc1ccccc1F)C2 (stereo not given),,0.0252 µM,,> 7.5 µM,0.0438,> 7.5 µM,> 7.5 µM,,,
COc1ccc(N=C2C(=O)Nc3ccc(Br)cc32)cc1,,,,,,,,,30.3 µM,
O=C(Nc1c(Cl)cc([N+](=O)[O-])cc1Cl)C(=O)C(C(=O)c1ccncc1)C1OC(=O)c2ccccc21 (stereo not given),> 100 µM,> 100 µM,> 100 µM,> 100 µM,> 100,> 100 µM,> 100 µM,> 100,,
Cc1c(C(=O)/C=C/c2ccc3c(c2)OCO3)[n+](=O)c2ccccc2n1[O-],52.6 µM,48.3 µM,92.8 µM,> 100 µM,48.8,> 100 µM,61.9 µM,> 100,,
Clc1ccc(/C=C/c2csnn2)cc1,> 100 µM,> 100 µM,> 100 µM,> 100 µM,> 100,> 100 µM,> 100 µM,,,
COc1cc([N+](=O)[O-])c(S(=O)(=O)O)cc1-[n+]1nc(C(=O)Nc2ccccc2)nn1-c1ccc([N+](=O)[O-])c(S(=O)(=O)[O-])c1,,,,,,,,,> 100 µM,
CCCC/C=C1/CCC(CN(C)C)C1=O (stereo not given),5.76 µM,5.59 µM,,5.21 µM,3.92,2.16 µM,1.36 µM,3.27,5.2 µM,TGI [10]: 1.9 µM; TGI [11]: 0.396 µM; TGI [12]: 0.366 µM
CC(=O)OCCc1cc2ccccc2oc1=O,,,,,,,,,> 100 µM,
O=C(/C=N/O)Nc1cccc(Cl)c1I,> 100 µM,> 100 µM,> 100 µM,,79.2,> 100 µM,> 100 µM,,,
CNC(=O)N(CCCCC(NC(C)=O)C(=O)NCc1ccccc1)Cc1ccccc1 (stereo not given),> 100 µM,> 100 µM,> 100 µM,> 100 µM,> 100,> 100 µM,> 100 µM,> 100,,
O=C([CH-]C(=O)c1ccccc1)c1ccccc1.[CH2-]C.[CH2-]C.[Tl+3],,> 100 µM,,,,,,,,GI50 [2]: 27.4 µM
COc1cc([C@H]2c3cc4c(cc3[C@H](NCc3ccc(F)cc3)C3COC(=O)[C@H]32)OCO4)cc(OC)c1O (stereo not given in full),13.8 µM,15.8 µM,9.67 µM,78 µM,18.7,> 100 µM,> 100 µM,14.3,,

SMILES,TGI [1],TGI [2],TGI [3],TGI [4],TGI [5] [µM],TGI [6],TGI [7],TGI [8] [µM],TGI [9],further results
O=S1(=O)CS(=O)(=O)OCCCCCO1,> 100 µM,> 100 µM,,> 100 µM,> 100,> 100 µM,> 100 µM,> 100,,
COc1cc2ccc(CC(=O)O)cc2cc1OC,> 100 µM,> 100 µM,,> 100 µM,> 100,> 100 µM,> 100 µM,> 100,,
Cc1ccccc1NC(=O)C(=O)CC(=O)c1sc(-n2nc(-c3ccccc3)cc2-c2ccccc2)nc1C,> 100 µM,> 100 µM,,> 100 µM,> 100,> 100 µM,> 100 µM,> 100,,
NCC[PH+](c1ccccc1)c1ccccc1.NCC[PH+](c1ccccc1)c1ccccc1.[Cl-].[Pt+4],,,,,,,,,> 100 µM,GI50 [9]: > 100 µM
NC(=O)C1C(=O)Oc2cccnc21 (stereo not given),> 100 µM,> 100 µM,> 100 µM,,> 100,> 100 µM,,,,
COc1cc(COC(=O)N(C)[C@@H](Cc2ccccc2)C(=O)O)c([N+](=O)[O-])cc1OC,,,,,,,,,> 100 µM,
Cc1ccc(/C=C2\CCCC(C(NO)c3ccc(C)cc3)C2=NO)cc1 (stereo not given),> 100 µM,42.5 µM,> 100 µM,> 100 µM,> 100,> 100 µM,> 100 µM,93.5,,
Cc1cn([C@H]2CN(O)C[C@@H](CO)O2)c(=O)[nH]c1=O,,,,,,,,,> 100 µM,
CN(C)CCC(/C=C/c1ccccc1)=N\Nc1c(F)c(F)c(F)c(F)c1F,> 100 µM,,,> 100 µM,> 100,> 100 µM,> 100 µM,,,
Cc1nc(Nc2ccc(Cl)c(Cl)c2)sc1C(/C=C/c1ccc2c(c1)OCO2)=N/Nc1ccc([N+](=O)[O-])cc1[N+](=O)[O-],> 100 µM,> 100 µM,> 48.8 µM,25.9 µM,> 100,> 100 µM,> 100 µM,,> 100 µM,
Nc1nc2c(ncn2C2OC(CO)C(O)C2O)c(=O)[nH]1 (stereo not given),159 µM,214 µM,,300 µM,214,142 µM,,,,TGI [10]: 259 µM; TGI [11]: 80.3 µM; TGI [12]: 44.5 µM
COC(=O)C1C(=O)NC2(C)CC1c1ccccc1O2 (stereo not given),> 100 µM,,> 100 µM,> 100 µM,> 100,> 100 µM,> 100 µM,,,
COc1ccc2cc1Oc1ccc(cc1)CC1c3c(cc(OC)c4c3Oc3cc5c(cc3O4)CCNC5C2)CCN1C (stereo not given),,,,,,,,,3.43 µM and 3.49 µM,GI50 [9]: 1.95 µM
O=C(CC/C(CC(=O)c1ccc(Cl)cc1)=N\O)Nc1cccc(Cl)c1,> 100 µM,> 100 µM,> 100 µM,> 100 µM,> 100,> 100 µM,> 100 µM,,,
CC(C)OC(=O)c1cc(NC(=S)OC(C)C)ccc1Cl,,,,,,,,,50 µM,
CC1(O)CC2C(CC1SCc1ccccc1)C2(C)C (stereo not given),33.1 µM and 29.2 µM,59.4 µM and 35.9 µM,32.9 µM and 37.4 µM,> 100 µM and 34.9 µM,33.1,> 100 µM and 30.2 µM,> 100 µM and 28.1 µM,,,GI50 [4]: 76.7 µM and 17.9 µM; GI50 [6]: 42.4 µM and 16.6 µM; GI50 [7]: 38.6 µM and 14.8 µM
c1ccc2[nH]c(-c3cscn3)nc2c1,,,,,,,,,> 100 µM,
CCOC(=O)c1cnc2c(ccc3ncccc32)c1OCC,> 100 µM,> 100 µM,,> 100 µM,> 100,> 100 µM,> 100 µM,> 100,,
Cc1cc(N(CCC#N)CCC#N)ccc1/C=C1N=C(/C=C\c2ccccc2)N(c2ccc(C(=O)O)cc2)C\1=O,,> 100 µM,,> 100 µM,> 100,> 100 µM,> 100 µM,> 100,,
NC(=O)N1N=C2c3ccccc3OC[C@H]2[C@@H]1c1ccccc1,> 100 µM,49.8 µM,> 100 µM,> 95.3 µM,34.2,> 100 µM,> 100 µM,,,
CC1(C)O[C@@H](CCl)C[C@@H](C#N)O1,> 100 µM,> 100 µM,,> 100 µM,> 100,> 100 µM,,,,
CSc1ccc2c(c1)N(CCCN(C)C)c1ccccc1S2,,,,,,,,,23.9 µM,
COc1cc(OC)c(OC)cc1/C=C\c1ccnc2ccccc12,,6.86 µM,,> 100 µM,,> 100 µM,> 100 µM,,0.791 µM,
